Patent US20240393292A1, “ALLERGY ANTIGEN AND EPITOPE THEREOF” (HOYU CO., LTD., priority 2019, published 2024)
One block for each substance: values may come before it.

Tested on: IgE antibodies from patients
Assay: Wheat epitope mapping (2): overlapping 10-amino-acid peptide fragments shifted by one amino acid
Assay type: binding, human
Settings: sequence without X
Method: The peptides to be synthesized were shifted by one amino acid.
The library was prepared by the same procedure as described above in (A), and the presence or absence of binding of an IgE antibody present in the serum of a patient to each peptide fragment was measured by the same technique as described above. Numeric values determined from images obtained as a result of carrying out only the procedures (1) and (4) to (6) described above in the subsection titled (3) Spotting of cellulose-bound peptide solution were used as control values. The control value of each peptide was subtracted from numeric values determined from images obtained from results about the serum of patients, and the obtained value of the difference was compared with values of the peptides serving as the basis of overlapping.
Chemiluminescence intensity in images obtained by measurement was converted into a numeric value in the same manner as in (A). Numeric values determined from images obtained as a result of carrying out only the procedures (1) and (4) to (6) described above in the subsection titled (3) Spotting of cellulose-bound peptide solution (secondary antibody measurement values) were used as control values. The control value of each peptide was subtracted from numeric values determined from images obtained from results about the serum of patients. When values obtained using the sequences (SEQ ID NOs: 29, 131, 191, 281, 346, 414, 493, 562, 640, 706, 776, 899, 974, 1010, 1089, 1142, 1166, 1209, 1257, 1297, 1367, 1403, 1508, 1566, 1598, 1608, 1685, 1753, 1789, 1836, 1895, 1977, 2004, 2027, 2068, 2154, 2217, 2265, 2309, 2342, 2419, 2491, 2545, 2613, 2631, 2674, 2701, 2774, 2809 and 2830) serving as the basis of overlapping were defined as 100%, it was determined that: a peptide having a value of the difference that was less than 30% had no binding activity against IgE antibodies; a peptide having a value of the difference that was 30% or more and less than 50% had binding activity, albeit poor, against IgE antibodies; a peptide having a value of the difference that was 50% or more and less than 70% had binding activity, albeit somewhat poor, against IgE antibodies; and a peptide having a value of the difference that was 70% or more had equivalent or good binding activity against IgE antibodies and was thus a peptide had remaining binding activity against IgE antibodies.

Epitope sequence binding to IgE antibody, rank of the sequence (serum of patient G7 (adult, general immediate type allergy to wheat)): Further preferably
Substance: 1162 (SIDQNAQG; REGION 1..8: note = epitope) [compound 1162]

Epitope sequence binding to IgE antibody, rank of the sequence (serum of patient P3 (WDEIA)): Preferably
Substance: 1168 (PGQQQQFPPQ; REGION 1..10: note = epitope) [compound 1168]

Epitope sequence binding to IgE antibody, rank of the sequence (serum of patient P3 (WDEIA)): Key
Substance: 1170 (FPPQQP; REGION 1..6: note = epitope) [compound 1170]

Epitope sequence binding to IgE antibody, rank of the sequence (serum of patient P7 (WDEIA)): Preferably
Substance: 1173 (QQQQFPPQQP; REGION 1..10: note = epitope) [compound 1173]

Epitope sequence binding to IgE antibody, rank of the sequence (serum of patient P8 (WDEIA)): Preferably
Substance: 1176 (QQFPPQQ; REGION 1..7: note = epitope) [compound 1176]

Epitope sequence binding to IgE antibody, rank of the sequence (serum of patient P8 (WDEIA)): Key
Substance: 1177 (QQFPPQ; REGION 1..6: note = epitope) [compound 1177]

Epitope sequence binding to IgE antibody, rank of the sequence (serum of patient P12 (WDEIA)): Preferably
Substance: 1179 (QQFPPQQ; REGION 1..7: note = epitope) [compound 1179]

Epitope sequence binding to IgE antibody, rank of the sequence (serum of patient P12 (WDEIA)): Key
Substance: 1180 (QQFPP; REGION 1..5: note = epitope) [compound 1180]

Epitope sequence binding to IgE antibody, rank of the sequence (serum of patient P14 (WDEIA)): Key
Substance: 1183 (QQFPPQQ; REGION 1..7: note = epitope) [compound 1183]

Epitope sequence binding to IgE antibody, rank of the sequence (serum of patient P19 (WDEIA)): Key
Substance: 1185 (QQFPPQQP; REGION 1..8: note = epitope) [compound 1185]

Epitope sequence binding to IgE antibody, rank of the sequence (serum of patient P21 (WDEIA)): Preferably
Substance: 1188 (QQFPPQQ; REGION 1..7: note = epitope) [compound 1188]

Epitope sequence binding to IgE antibody, rank of the sequence (serum of patient P21 (WDEIA)): Key
Substance: 1189 (QQFPPQ; REGION 1..6: note = epitope) [compound 1189]

Epitope sequence binding to IgE antibody, rank of the sequence (serum of patient P21 (WDEIA)): Key
Substance: 1190 (QQFPPQQPYP; REGION 1..10: note = epitope) [compound 1190]

Epitope sequence binding to IgE antibody, rank of the sequence (serum of patient P22 (WDEIA)): Key
Substance: 1194 (QQQQFPPQ; REGION 1..8: note = epitope) [compound 1194]

Epitope sequence binding to IgE antibody, rank of the sequence (serum of patient P22 (WDEIA)): Key
Substance: 1195 (QFPPQQPYPQ; REGION 1..10: note = epitope) [compound 1195]

Epitope sequence binding to IgE antibody, rank of the sequence (serum of patient P28 (WDEIA)): Key
Substance: 1200 (QQFPGQQQQ; REGION 1..9: note = epitope) [compound 1200]

Epitope sequence binding to IgE antibody, rank of the sequence (serum of patient P34 (WDEIA)): Preferably
Substance: 1206 (QQFPPQQP; REGION 1..8: note = epitope) [compound 1206]

Epitope sequence binding to IgE antibody, rank of the sequence (serum of patient P34 (WDEIA)): Key
Substance: 1207 (FPPQQ; REGION 1..5: note = epitope) [compound 1207]

Epitope sequence binding to IgE antibody, rank of the sequence (serum of patient P35 (WDEIA)): Key
Substance: 1208 (QQFPPQQ; REGION 1..7: note = epitope) [compound 1208]

Epitope sequence binding to IgE antibody, rank of the sequence (Key/Preferably/More preferably/Further preferably) (serum of patient P2 (WDEIA)): Preferably
Substance: 1210 (PIQQQP; REGION 1..6: note = epitope) [compound 1210]

Epitope sequence binding to IgE antibody, rank of the sequence (serum of patient P7 (WDEIA)): Preferably
Substance: 1213 (PIQQQPQPFP; REGION 1..10: note = epitope) [compound 1213]

Epitope sequence binding to IgE antibody, rank of the sequence (serum of patient P7 (WDEIA)): Preferably
Substance: 1216 (PQQPP; REGION 1..5: note = epitope) [compound 1216]

Epitope sequence binding to IgE antibody, rank of the sequence (serum of patient P9 (WDEIA)): Preferably
Substance: 1218 (PIQQQP; REGION 1..6: note = epitope) [compound 1218]

Epitope sequence binding to IgE antibody, rank of the sequence (serum of patient P9 (WDEIA)): Key
Substance: 1220 (IQQQP; REGION 1..5: note = epitope) [compound 1220]

Epitope sequence binding to IgE antibody, rank of the sequence (serum of patient P10 (WDEIA)): Preferably
Substance: 1221 (PIQQQPQPF; REGION 1..9: note = epitope) [compound 1221]

Epitope sequence binding to IgE antibody, rank of the sequence (serum of patient P10 (WDEIA)): Key
Substance: 1223 (IQQQP; REGION 1..5: note = epitope) [compound 1223]

Epitope sequence binding to IgE antibody, rank of the sequence (serum of patient P12 (WDEIA)): Preferably
Substance: 1225 (QQPIQQQP; REGION 1..8: note = epitope) [compound 1225]

Epitope sequence binding to IgE antibody, rank of the sequence (serum of patient P12 (WDEIA)): Key
Substance: 1226 (PIQQQP; REGION 1..6: note = epitope) [compound 1226]
